According to article PMC10142505, “Synthesis, Evaluation of Enzyme Inhibition and Redox Properties of Potential Dual COX-2 and 5-LOX Inhibitors” (Pharmaceuticals, 2023):

Columns and labels:
human serum pool = assay: Redox activity (oxy score from TOS, PAB, TAS, SHG) in vitro in human serum pool; details: 37 °C, median (interquartile range)
Procedure: The remains of the serum samples were taken from healthy subjects after biochemical analysis; these subjects participated in regular medical examinations at the Military Medical Academy in Belgrade and consented to the formation of a serum pool. Neither the patients’ data nor their identities were used. Serum pool samples were prepared and aliquoted (450 µL portions) according to the routine procedure for in-house controle samples and preserved at the -80 °C until analysis. Five serial dilutions of the tested compounds (concentrations: 1000 µM, 500 µM, 250 µM, 125 µM and 62.5 µM) were added alone (50 µL) or in combination (25 µL) with oxidant TBH (25 µM) into 450 µL of serum. The compounds were dissolved in dimethyl sulfoxide (DMSO) for stock solution (1000 µM), while a PBS buffer (phosphate buffered saline) pH = 7.4 was used for serial dilutions (500 µM, 250 µM, 125 µM and 62.5 µM). Deionized water was used as a blank. DMSO and buffer pH = 7.4 were used as a control, while trolox solution (2 mmol/L) was used as a standard. All samples were incubated in duplicate for 2 h and 24 h at 37 °C.
Oxidative stress parameters (total antioxidative status (TAS), total oxidative status (TOS), total concentration of sulfhydryl group (SHG) and prooxidative–antioxidative balance (PAB)) were determined in order to calculate prooxidative score, antioxidative score and oxy score (OS). These parameters were determined in serum.
Total antioxidative status (TAS) was measured using Erel’s method, which was further optimized by Kotur-Stevuljevic et al. in 2015 [34]. ABTS (2,2-azino-bis(3-ethyl-benzthiazoline-6-sulfonic acid) is oxidized to a green-colored ABTS^+ cation by hydrogen peroxide in the acetate buffer (pH = 3.6). This stable cation is chromogen, and the presence of antioxidants in the samples causes its discoloration proportional to their concentrations. The absorbance was measured using a SPECTROstar Nano Microplate Reader (BMG Labtech, Ortenberg, Germany). The reaction was calibrated with Trolox and the TAS values are expressed as mmol trolox equivalent/L.
Total oxidative status (TOS) was measured using Erel’s method. Here, a ferrous ion-o-dianisidine complex is oxidized to ferric ion by the oxidants present in the sample. The ferric ion forms a colored complex with xylenol orange in an acidic environment and in the presence of glycerol. The intensity of the color of the formed complex is proportional to the total contents of oxidants in the sample. The absorbance was measured at 560 nm using a SPECTROstar Nano Microplate Reader (BMG Labtech, Ortenberg, Germany). The reaction was calibrated with hydrogen peroxide and the TOS values are expressed as µmol H2O2 equivalent/L.
Prooxidant–antioxidant balance (PAB) was measured according to procedures in the literature. Here, hydrogen peroxide is determined in the presence of antioxidants in the sample. Both of them (hydrogen peroxide and antioxidants (including uric acid)) react with chromogen TMB (3,3′,5,5′-tetramethylbenzidine) simultaneously. The hydrogen peroxide and chromogen reaction is enzymatically catalyzed with peroxidase, while the antioxidants–chromogen reaction is non-enzymatic. The intense blue color, produced as a result of the reaction between hydrogen peroxide and TMB, is decolorized by the reaction of the antioxidant with the TMB. The resulting color (result of two competitive reactions) is proportional to the ratio of antioxidants to prooxidants. The absorbance was measured at 450 nm. Different ratios of hydrogen peroxide and uric acid solutions were used to make a standard curve. The PAB results are expressed in hydrogen peroxide concentrations.
Total Sulfydryl Groups Content (SHG) was measured using a modified version of Ellman’s method. This method is based on the reaction between DTNB ([…]) and aliphatic thiol compounds in an alkaline environment (pH = 9.0). […]

5-LOX enzyme = biological target: T1, 5-LOX enzyme (Homo sapiens, UniProt P09917); assay: Fluorometric 5-LOX inhibitor screening kit; format: biochemical; details: IC50 ± standard error
T1 construct: purchased MyBioSource MBS846911
T1 sequence (P09917 1-674): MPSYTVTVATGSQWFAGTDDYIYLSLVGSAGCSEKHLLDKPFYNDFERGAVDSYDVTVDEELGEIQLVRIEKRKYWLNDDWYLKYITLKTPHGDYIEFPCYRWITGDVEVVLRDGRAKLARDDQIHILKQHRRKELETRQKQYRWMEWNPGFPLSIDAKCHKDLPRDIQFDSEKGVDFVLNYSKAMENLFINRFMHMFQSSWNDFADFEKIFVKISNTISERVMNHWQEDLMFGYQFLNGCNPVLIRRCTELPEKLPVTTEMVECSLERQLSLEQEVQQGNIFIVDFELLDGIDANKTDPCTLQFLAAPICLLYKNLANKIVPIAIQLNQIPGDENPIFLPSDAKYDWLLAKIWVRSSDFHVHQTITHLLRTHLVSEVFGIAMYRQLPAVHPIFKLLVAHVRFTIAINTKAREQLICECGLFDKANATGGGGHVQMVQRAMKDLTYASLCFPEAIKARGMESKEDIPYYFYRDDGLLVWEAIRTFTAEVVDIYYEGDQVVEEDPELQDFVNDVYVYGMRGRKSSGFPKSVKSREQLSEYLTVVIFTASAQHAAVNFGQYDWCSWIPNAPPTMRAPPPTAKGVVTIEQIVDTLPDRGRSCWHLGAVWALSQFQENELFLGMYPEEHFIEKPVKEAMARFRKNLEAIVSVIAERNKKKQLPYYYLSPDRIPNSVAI
Procedure: The 5-LOX inhibitory activates of synthesized compounds were tested using a fluorometric 5-LOX inhibitor screening kit (MyBioSource, San Diego, CA, USA; Catalog Number: MBS846911). This assay is based on the fluorometric detection of the intermediate generated by the 5-LOX enzyme. The experiment was conducted according to the manufacturer’s instructions. […] The tested compounds were dissolved in DMSO. Test solutions were added to corresponding wells at an amount of 2 µL out of the final 100 µL reaction volume per well. […] The volume was adjusted to 40 µL in each well by adding 38 µL of LOX Assay Buffer. The Reaction Mix (containing LOX Assay Buffer, LOX Probe and 5-LOX Enzyme) was prepared according to the instructions and 40 µL of the Reaction Mix was added into each well. The plate was incubated at room temperature for 10 min before adding the substrate diluted in the LOX Assay Buffer (1:2500 dilution factor). The final substrate solution was added at an amount of 20 µL into each well using a multi-channel pipette to initiate all the reactions at the same time. […] The EC, SC, IC and tested compounds at all concentrations were analyzed in triplicates. Two points (T1 and T2) in the linear range of the plot were chosen and corresponding fluorescence values (RFU1 and RFU2) were obtained. The slope for all samples was calculated by dividing ΔRFU (RFU2-RFU1) by the time Δt (T2−T1). The percentage of inhibition was calculated according to the equation mentioned in Section 3.3.1.
Fluorescence measurements were performed on a BioTek Synergy LX multi-mode reader (Winooski, VT, USA).

Q: Which results are given for CC(C)(C)c1cc(C=C2SC(=S)N(N)C2=O)cc(C(C)(C)C)c1O [Compound 13, 3-amino-5-(3,5-di-tert-butyl-4-hydroxy-benzylidene)-2-thioxo-thiazolidin-4-one]?
A: Oxy score (OS), 2 h incubation, TBH added (human serum pool; 2 h, with TBH added): 5.89 (5.63–6.14); Oxy score (OS), 2 h incubation (human serum pool; 2 h, without TBH, average of five concentrations): 0.75 (0.56–0.94); Oxy score (OS), 24 h incubation (human serum pool; 24 h, without TBH): 0.64 (0.19–1.01); IC50 (5-LOX enzyme): 13.6 ± 3.54 µM
